From ChEMBL document CHEMBL6127089, “Novel non-peptide uracil-derived human gonadotropin-releasing hormone receptor antagonists” (Eur J Med Chem, 2024) come the findings set out here.

Structures are written as SMILES. pEC50: −log10 of the molar value.

The assay concerns the target T1, Gonadotropin-releasing hormone receptor (Homo sapiens, UniProt P30968).
T1 sequence (P30968 whole entry): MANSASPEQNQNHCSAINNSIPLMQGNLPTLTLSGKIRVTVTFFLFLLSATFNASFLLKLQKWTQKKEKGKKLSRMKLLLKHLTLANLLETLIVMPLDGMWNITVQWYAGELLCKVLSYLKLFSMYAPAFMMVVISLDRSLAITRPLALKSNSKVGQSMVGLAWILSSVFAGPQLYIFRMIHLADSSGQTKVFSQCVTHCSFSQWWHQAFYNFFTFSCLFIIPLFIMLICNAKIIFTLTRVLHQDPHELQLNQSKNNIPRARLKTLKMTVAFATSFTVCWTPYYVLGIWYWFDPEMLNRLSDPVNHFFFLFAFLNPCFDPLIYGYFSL
As to the kind of experiment: Antagonist activity at wild type HA-tagged human GnRH1 receptor expressed in HEK293T cells assessed as inhibition of GnRH peptide-stimulated IP1 accumulation by measuring GnRH peptide EC50 at 100 uM pretreated for 1 hr followed by stimulation with GnRH peptide for 1 hr (reference value: 2.5 nM). It counts as cell-based.
Consider `COc1cccc(-c2c(N[C@@H](CSCCCC(=O)O)c3ccccc3)nc(=O)n(Cc3c(F)cccc3C(F)(F)F)c2C)c1F`, for which the pEC50 is 7.41. The same measure for `COc1cccc(-c2c(SC[C@H](NCCCC(=O)O)c3ccccc3)nc(=O)n(Cc3c(F)cccc3C(F)(F)F)c2C)c1F`: 6.96; for `COc1cccc(-c2c(C)n(Cc3c(F)cccc3C(F)(F)F)c(=O)n(C[C@H](NCCCC(=O)O)c3ccccc3)c2=O)c1F` [ELAGOLIX]: 9.22.

What is called pEC50 is the negative decadic logarithm of the EC50, by convention in mol/L.
